Counter-ions that a name gives are not always drawn.
How the values were obtained:
[1] = tested on: Oct-4 gene expression, BJF cells; assay: Small molecules, Oct-4 gene expression by qRT-PCR (Table III), BJF; assay type: cell-based, human
Description: (§1) Cell culture. Human dermal fibroblasts were purchased from Cell Applications (San Diego, Calif.), and were maintained at 37° C. in 95% humidity and 5% CO2 in Fibroblast growth medium (Cell Applications, San Diego, Calif.).
(§2) Quantitative RT-PCR. Expression of Oct-4 was determined by real-time RT-PCR. Briefly, total RNA was prepared from cultures using Trizol Reagent (Life Technologies, Gaithersburg, Md.) and RNeasy Mini kit (Qiagen; Valencia, Calif.) with DNase I digestion according to manufacturer's protocol. Total RNA (1 μg) from each sample was subjected to oligo(dT)-primed reverse transcription (Invitrogen; Carlsbad, Calif.). Real-time PCR reactions will be performed with PCR master mix on a 7300 real-time PCR system (Applied Biosystems; Foster City, Calif.). For each sample, 1 μl of diluted cDNA (1:10) will be added as template in PCR reactions. The expression level of Cot-4 was normalized to glyceraldehyde 3-phosphate-dehydrogenase (GAPD).
Table III provides the effects of small molecule inhibitors on Oct-4 gene expression in human somatic cells. mRNA levels were determined by real time qRT-PCR and normalized with GAPDH. The abbreviations are as follows: HDACi (histone deacetylase inhibitor DNMTi (DNA methyltransferase inhibitor); SIRTi (sirtuin, Class III HDAC inhibitor); LdeMi (lysine demethylase inhibitor); SIRT1a (sirtuin 1 activator); TSAi (trichostatin A inhibitor); HDMi/LSD1i (histone demethylase inhibitor/Lysine demethylase 1 inhibitor).

[2] = tested on: Oct-4 gene expression, adult human dermal fibroblasts (HDFa); assay: Small molecules, Oct-4 gene expression by qRT-PCR (Table III), HDFa; assay type: cell-based
Description: as §1, §2
The abbreviations are as follows: HDACi (histone deacetylase inhibitor DNMTi (DNA methyltransferase inhibitor); SIRTi (sirtuin, Class III HDAC inhibitor); LdeMi (lysine demethylase inhibitor); SIRT1a (sirtuin 1 activator); TSAi (trichostatin A inhibitor); HDMi/LSD1i (histone demethylase inhibitor/Lysine demethylase 1 inhibitor).

[3] = tested on: Oct-4 gene expression, HLFa; assay: Small molecules, Oct-4 gene expression by qRT-PCR (Table III), HLFa; assay type: cell-based, human; conditions: dose 500 uM, Rx Time 5
[4] = tested on: Oct-4 protein, fetal human dermal fibroblasts (HDFf); assay: Immunohistochemistry of Oct-4 protein in shRNA-infected cells; assay type: cell-based; conditions: versus uninfected control
Description: Cell culture. Fetal human dermal fibroblasts were purchased from Cell Applications (San Diego, Calif.), and were maintained at 37° C. in 95% humidity and 5% CO2 in Fibroblast growth medium (Cell Applications, San Diego, Calif.).
Lentiviral Infection. Fetal human dermal fibroblasts were infected with one of the following compositions: (1) shRNA lentivirus directed to DNMT1; (2) shRNA lentivirus directed toward HDAC7; (3) shRNA lentivirus directed toward DNMT1 and HDAC7; and (4) shRNA lentivirus directed toward HDAC7a and HDAC11. The shRNA construct was obtained from Dharmacon. The shRNA construct directed toward HDAC7a had the following sequence:
(§3) The human dermal fibroblasts were infected with the shRNA following the manufacturer's instructions. HDF were cultured with an without puromycin selection and hES culture conditions (mTeSR Medium, Stem Cell Technology, Vancouver, BC, Canada) on matrigel (BD Biosciences, San Jose Calif.).
Immunohistochemistry. For immunohistochemistry, target shRNA-infected and control cells were grown on chambered slides (LabTek, Napersville, Ill.). Cells were then be fixed with 4% paraformaldehyde, and incubated with a specific antibody directed against pluripotency marker Oct3/4 (Abeam, Cambridge, Mass.) following the manufacturer's protocol. Staining of Oct3/4 was visualized as a red color. […]

[5] = tested on: Sox-2 protein, fetal human dermal fibroblasts (HDFf); assay: Immunohistochemistry of Sox-2 protein in shRNA-infected cells; assay type: cell-based; conditions: versus uninfected control
[6] = tested on: HDAC7a and HDAC11 expression, human dermal fibroblasts (HDFa, HDFn, HDFf); assay: HDAC7a shRNA effect on expression of HDAC7a and HDAC11, RT-PCR; assay type: cell-based
Description: as §1
Lentiviral Infection. Human dermal fibroblasts were infected with a shRNA construct. The shRNA construct was obtained from Dharmacon. The shRNA construct directed toward HDAC7a had the following sequence:
as §3
as §2, with “HDAC7a and HDAC11” for “Oct-4”, “The expression level of Cot-4 was normalized to glyceraldehyde 3-phosphate-dehydrogenase (GAPD).” left out

[7] = tested on: HDAC genes and SIRT genes mRNA, human dermal fibroblasts; assay: HDAC7 shRNA lentiviral infection, RT-PCR of HDAC and SIRT genes (FIG. 7); assay type: cell-based
From the text: (§4) Human dermal fibroblasts (HDFa, HDFn, and HDFf) were infected with shRNA lentivirus to interfere with HDAC7. In a separate set of experiments, human dermal fibroblasts (HDFa, HDFn, and HDFf) were infected with shRNA lentivirus to interfere with HDAC11. RNA was isolated from HDFs (including puromycin selection) and applied to RT-PCR to analyze expression of target genes, e.g., Oct-4, Nanog, Sox2, various HDACs and various SIRT genes. The shRNA construct included puromycin (antibiotic) resistance as a way to select cells that have been successfully transfected with the shRNA. After transfection, puromycin was added to the culture and cells that were not resistant (therefore not transfected) died, thereby leaving only transfected cells remaining in the culture.
as §1
(§5) Lentiviral Infection. Human dermal fibroblasts were infected with a shRNA construct. The shRNA construct was obtained from Dharmacon. The shRNA construct directed toward directed toward HDAC7a had the following sequence:
The human dermal fibroblasts were infected with the shRNA following the manufacturer's instructions. […]
Quantitative RT-PCR. Expression of Oct-3/4 and Nanog was determined by real-time RT-PCR. […]

[8] = tested on: Oct-4, Nanog, Sox-2 mRNA, human dermal fibroblasts (HDFa, HDFn, HDFf); assay: HDAC7 or HDAC11 shRNA lentiviral infection, RT-PCR of Oct-4, Nanog, Sox-2 mRNA; assay type: cell-based
From the text: as §4, §1, §5
as §3, with “Calif.). In these sets of experiments, cells were infected with a shRNA construct directed toward either HDAC7, or HDAC11.” for “Calif.).”
as §2, with “Oct-3/4 and Nanog” for “Oct-4”, “DNase” for “DNase I”, “Oct-3/4 and Nanog” for “Cot-4”

NC1CC1c1ccccc1 (centres unmarked) [2-PCPA]
Oct4 FC ([1]; dose 1 mM, Rx Time 8): <2

O=C(O)CCCCC1CCSS1 (stereo not drawn) [ALA, Alpha-lipoic acid]
Oct4 FC ([2]; dose 50 uM, Rx Time 4): 3.5

O=C(O)CCCC[C@@H]1SC[C@@H]2NC(=O)N[C@@H]21 [Biotin]
Oct4 FC ([2]; dose 500 uM, Rx Time 4): <2

Nc1ccccc1NC(=O)CCCCCCC(=O)Nc1ccccc1 [CAY 10433]
Oct4 FC ([2]; dose 50 uM, Rx Time 4): <2

O=C(O[C@@H]1Cc2c(O)cc(O)cc2O[C@@H]1c1cc(O)c(O)c(O)c1)c1cc(O)c(O)c(O)c1 [EGCG]
Oct4 FC ([1]; dose 1 uM, Rx Time 4): <2

NC(=O)C1CCCc2c1[nH]c1ccc(Cl)cc21 (centres unmarked) [EX-527]
Oct4 FC ([2]; dose 50 uM, Rx Time 4): 2

NNc1nncc2ccccc12 [Hydralazine HCL]
Oct4 FC ([2]; dose 500 uM, Rx Time 2): <2

O=C(c1ccc(Cl)cc1Cl)n1nnc2ccccc21 [ITSA]
Oct4 FC ([2]; dose .05 mM, Rx Time 4): <2

NC(=O)c1cccnc1 [Nicotinamide]
Oct4 FC ([2]; dose .028 mM, Rx Time 4): 2.3

CCN(CC)CCOC(=O)c1ccc(N)cc1 [Procaine HCL]
Oct4 FC ([2]; dose 500 uM, Rx Time 8): <2

O=C(NCCSSCCNC(=O)/C(Cc1ccc(O)c(Br)c1)=N/O)/C(Cc1ccc(O)c(Br)c1)=N/O [Psammaplin-A]
Oct4 FC ([1]; dose 1.5 mM, Rx Time 7): 2.2

O=C(O)C(Cc1c[nH]c2ccccc12)N1C(=O)c2ccccc2C1=O (centres unmarked) [RG108]
Oct4 FC [3]: <2

Cn1cc(C2=C(c3cn(CCCSC(=N)N)c4ccccc34)C(=O)NC2=O)c2ccccc21 [RO-31-8220]
Oct4 FC ([1]; dose 2.5 mM, Rx Time 4): <2

Oc1ccc(C=Cc2cc(O)cc(O)c2)cc1 [Resveratrol]
Oct4 FC ([1]; dose .5 mM, Rx Time 4): <2

COCCCn1c(N)c(C(=O)NC2CCCC2)c2nc3ccccc3nc21 [SIRT1 Activator 3]
Oct4 FC ([2]; dose 500 uM, Rx Time 4): 2

CC(NC(=O)c1ccccc1/N=C/c1c(O)ccc2ccccc12)c1ccccc1 (centres unmarked) [Sirtinol]
Oct4 FC ([1]; dose .05 mM, Rx Time 7): <2

O=C1CCc2c(ccc3ccccc23)O1 [Splitomycin]
Oct4 FC ([2]; dose .5 mM, Rx Time 4): 2

N[C@@H]1C[C@H]1c1ccccc1 [Tranylcypromine]
Oct4 FC ([2]; dose 2.5 mM, Rx Time 4): 2.7

O=c1ncccn1[C@@H]1O[C@H](CO)[C@@H](O)[C@H]1O [Zebularine]
Oct4 FC ([1]; dose .05 mM, Rx Time 6): <2

DNMT1 shRNA: shRNA construct directed toward DNMT1, SEQ ID NO. 4: GTCTACCAGATCTTCGATA (listed as Homo Sapiens)
Oct-4 protein expression [4]: clearly increased
Sox-2 protein expression [5]: only a modest amount

Depudecin
Oct4 FC ([2]; dose 50 uM, Rx Time 4): <2

HDAC7 shRNA: shRNA lentiviral construct from Dharmacon directed toward HDAC7a, SEQ ID NO. 1: GCTTTCAGGATAGTCGTGA (shRNA lentiviral construct)
Oct-4 protein expression [4]: minimal detection
expression of HDAC7a [6]: decreased
expression of HDAC11 ([6]; presence and absence of puromycin): increased
level of HDAC7 mRNA reduced ([7]; around three days after lentiviral infection): about 50 % of basal level
expression of HDAC 9, HDAC5 and HDAC11 mRNA ([7]; three days after HDAC7 shRNA infection): inducted
level of mRNA for the gene Oct-4 ([8]; HDFa and HDFn, presence and absence of puromycin, compared to Nanog): more modest increase
expression of Nanog increased over time ([8]; HDFa and HDFn, with and without puromycin selection): at least six-fold
level of mRNA for the gene Nanog ([8]; HDFa, HDFn and HDFf, presence and absence of puromycin): increased
level of mRNA for the gene Nanog ([8]; HDFf, compared with HDFa and HDFn): not as robustly
level of mRNA for the Sox-2 gene ([8]; fetal human dermal fibroblasts (HDFf)): No induction
Sox-2 protein expression [5]: minimal protein expression

Na Phenylbutyrate
Oct4 FC ([2]; dose 2.5 mM, Rx Time 4): 2.5

Valproxam
Oct4 FC ([2]; dose .5 mM, Rx Time 4): <2

Reference: patent US20110059526A1, “REPROGRAMMING A CELL BY INDUCING A PLURIPOTENT GENE THROUGH USE OF AN HDAC MODULATOR” (NUPOTENTIAL, INC., priority 2008, published 2011)
